Laboratory results taken from article PMC10121968, “Fosgonimeton, a Novel Positive Modulator of the HGF/MET System, Promotes Neurotrophic and Procognitive Effects in Models of Dementia” (Neurotherapeutics, 2022).
Non-standard residues stand in square brackets, D forms with d. Residues, ends and D or L forms follow the SMILES beside them. *: point of attachment. Hexanoyl = CCCCCC(=O)*; Ahx = NCCCCCC(=O)O

How the values were obtained:
[1] = Plasma PK in rats after SC injection; assay type: in vivo, rat
Procedure: Four male rats were treated with 10 mg/kg fosgo-AM in DMSO via SC injection. Blood was serially collected at 0.08, 0.25, 0.5, 1, 2, and 4 h after dosing. Plasma was obtained by centrifugation with 2% disodium ethylenediaminetetraacetic acid (EDTA) as an anticoagulant. Plasma samples were precipitated with acetonitrile containing internal standard, and the concentration of fosgo-AM was determined by LC/MS/MS.
This study was conducted as described in the “Fosgo-AM PK in Rats” section with the following changes: animals were given 12 mg/kg fosgonimeton in saline with 0.1% glycine via SC injection, and a dose-linear correction was applied to normalize the dose to 10 mg/kg for comparison with the fosgo-AM study. Sample concentrations of both fosgonimeton and fosgo-AM were determined.

[2] = system: TNF-α; assay: TNF-α release in LPS-challenged THP-1 macrophages (ELISA); assay type: cell-based, human; settings: 1 µM, 20 min pretreatment, LPS 50 ng/mL 24 h, vs LPS + vehicle
Procedure: To determine the effect of fosgo-AM on LPS-induced cytokine release, we sought to determine the levels of interleukin-1β (IL-1β), interleukin-6 (IL-6), and tumor necrosis factor-α (TNF-α) in LPS-challenged THP-1–differentiated macrophages in the presence and absence of fosgo-AM. THP-1 monocytes were grown at 37 °C, 5% CO2 in Roswell Park Memorial Institute (RPMI) medium + 10% FBS until approximately 80% confluent. Cells were seeded in polystyrene-treated 96-well cell culture plates at approximately 50,000 cells/well in 100-µL complete media. 100 µL Phorbol myristate acetate was then added to each well for a final concentration of 100 ng/mL. The plate was then incubated for 3 days at 37 °C, 5% CO2 to prime the monocytes into macrophages. […] For cytokine quantification, cell culture supernatant was assayed by HTRF kits to assess levels of IL-1β (Human IL-1β kit, #62HIL1BPEG, Cisbio, Codolet, France) and IL-6 (Human IL-6 kit, 62HIL06PET, Cisbio, Codolet, France), and by ELISA (Human TNF-α ELISA kit, KHC3011, ThermoFisher, Waltham, Massachusetts) to determine the levels of TNF-α. […] Fluorescence emission at 2 different wavelengths (665 nm and 620 nm) were measured on an Envision plate reader (PerkinElmer, Waltham, Massachusetts), and HTRF ratio of the acceptor and donor emission signals for each well was calculated as follows: HTRF ratio = (665 nm/620 nm) × 10,000. […]

SMILES: CCCCCC(=O)N[C@@H](Cc1ccc(O)cc1)C(=O)N[C@H](C(=O)NCCCCCC(N)=O)[C@@H](C)CC [fosgo-AM] (Hexanoyl-Tyr-Ile-[Ahx]-NH2)
- fosgo-AM maximum concentration (Cmax) in plasma ([1]; after SC delivery of fosgonimeton (12 mg/kg, normalized to 10 mg/kg), after metabolism): 1198 ng/mL
- fosgo-AM maximum concentration (Cmax) in plasma ([1]; after direct SC delivery of fosgo-AM 10 mg/kg): 329 ng/mL
- TNF-α release [2]: significant decrease
